In patent US8357717B2, “Spiro group-containing amide compounds having bradykinin 1 receptor (B1R) activity” (Gruenenthal GmbH, priority 2009, dated 2013):

Experiments:
[1] = biological target: T1, B1R receptor of the rat (rB1R) (Rattus norvegicus, UniProt P97583); assay: FLIPR Ca2+ functional study on bradykinin receptor 1, rB1R cells (CHO K1); assay type: cell-based; settings: 10 μM test substance; CHO K1 cells with rat B1R; agonist Des-Arg9-bradykinin at EC80; read-out: B1R antagonism, rat [10 μM] % inhibition
T1 construct: expressed in transfected cells; host or cells: CHO K1 cells, stably transfected
T1 sequence (P97583 1-337): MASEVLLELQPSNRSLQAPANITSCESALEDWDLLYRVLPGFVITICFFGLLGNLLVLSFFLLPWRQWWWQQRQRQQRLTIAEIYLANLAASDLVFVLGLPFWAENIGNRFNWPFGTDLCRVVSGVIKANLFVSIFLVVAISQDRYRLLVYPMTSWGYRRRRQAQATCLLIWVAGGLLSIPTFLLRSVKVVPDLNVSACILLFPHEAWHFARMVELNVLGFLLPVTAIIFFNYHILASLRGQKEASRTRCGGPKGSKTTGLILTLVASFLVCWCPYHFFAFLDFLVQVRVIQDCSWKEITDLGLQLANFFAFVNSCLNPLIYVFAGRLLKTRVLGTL
Description: (§1) The agonistic or antagonistic activity of substances can be quantified on the bradykinin receptor 1 (B1R) of the species human and rat using ectopically expressing cell lines (CHO K1 cells) and with the aid of a Ca^2+-sensitive dye (Fluo-4) using a fluorescent imaging plate reader (FLIPR). The indication in % activation is based on the Ca^2+ signal after addition of Lys-Des-Arg^9-bradykinin (0.5 nM) or Des-Arg^9-bradykinin (100 nM). Antagonists lead to suppression of the Ca^2+ influx after the addition of the agonist. % Inhibition compared with the maximum achievable inhibition is indicated.
(§2) The agonistic or antagonistic activity of substances can be determined on the bradykinin receptor 1 (B1R) of the species human and rat using the following assay. According to this assay, the Ca^2+ influx through the channel is quantified with the aid of a Ca^2+-sensitive dye (Fluo-4 type, Molecular Probes Europe BV, Leiden, Netherlands) using a Fluorescent Imaging Plate Reader (FLIPR, Molecular Devices, Sunnyvale, USA).
(§3) Chinese hamster ovary cells (CHO K1 cells) which have been stably transfected with the human B1R gene (hB1R cells) or with the B1R gene of the rat (rB1R cells) are used. For functional studies, the cells are plated out on black 96-well plates having a clear base (BD Biosciences, Heidelberg, Germany or Greiner, Frickenhausen, Germany) in a density of 20,000-35,000 cells/well. The cells are left overnight at 37° C. and with 5% CO2 in culture medium (hB1R cells: Nutrient Mixture Ham's F12, Gibco Invitrogen GmbH, Karlsruhe, Germany or DMEM, Sigma-Aldrich, Taufkirchen, Germany; rB1R cells: D-MEM/F12, Gibco Invitrogen GmbH, Karlsruhe, Germany), with 10 vol. % FBS (fetal bovine serum, Gibco Invitrogen GmbH, Karlsruhe, Germany or PAN Biotech GmbH, Aidenbach, Germany). On the following day, the cells are loaded for 60 minutes at 37° C. with 2.13 μM Fluo-4 (Molecular Probes Europe BV, Leiden, Netherlands) in HBSS buffer (Hank's buffered saline solution, Gibco Invitrogen GmbH, Karlsruhe, Germany) […] (Sigma-Aldrich, Taufkirchen, Germany) and 10 mM HEPES (Sigma-Aldrich, Taufkirchen, Germany). The plates are then washed twice with HBSS buffer, and HBSS buffer additionally containing 0.1% BSA (bovine serum albumin; Sigma-Aldrich, Taufkirchen, Germany), 5.6 mM glucose and 0.05% gelatin (Merck KGaA, Darmstadt, Germany) is added to the plates. After incubation for a further 20 minutes at room temperature, the plates are inserted into the FLIPR for Ca^2+ measurement. Alternatively, washing is carried out with buffer A (15 mM HEPES, 80 mM NaCl, 5 mM KCl, 1.2 mM CaCl2, 0.7 mM MgSO4, 2 g/l glucose, 2.5 mM probenecid) followed by loading with buffer A with added 2.5 μM Fluo-4 and 0.025% Pluronic F127 (Sigma-Aldrich, Taufkirchen, Germany). The cells are then washed twice with buffer A and incubated for 30 minutes at room temperature with buffer A additionally containing 0.05% BSA and 0.05% gelatin and are then inserted into the FLIPR for Ca^2+ measurement. The Ca^2+-dependent fluorescence is measured before and after the addition of substances (λex=488 nm, λem=540 nm). Quantification is carried out by measuring the highest fluorescence intensity (FC, fluorescence counts) over time.
(§4) The FLIPR protocol consists of two substance additions. Test substances (10 μM) are first pipetted onto the cells and the Ca^2+ influx is compared with the control (hB1R: Lys-Des-Arg^9-bradykinin >=50 nM; rB1R: Des-Arg^9-bradykinin 10 μM). This gives the activation in %, based on the Ca^2+ signal after addition of Lys-Des-Arg^9-bradykinin (>=50 nM) or Des-Arg^9-bradykinin (10 μM). After 10-20 minutes' incubation, Lys-Des-Arg^9-bradykinin (hB1R) or Des-Arg^9-bradykinin (rB1R) is applied in the concentration of the EC80, and the influx of Ca^2+ is likewise determined. Antagonists lead to suppression of the Ca^2+ influx. The % inhibition compared with the maximum achievable inhibition is calculated. […]

[2] = biological target: T2, human B1R receptor (hB1R) (Homo sapiens, UniProt P46663); assay: FLIPR Ca2+ functional study on bradykinin receptor 1, hB1R cells (CHO K1); assay type: cell-based; settings: CHO-K1, 10 μM test substance; CHO K1 cells with human B1R; agonist Lys-Des-Arg9-bradykinin at EC80; read-out: B1R antagonism, human [10 μM] % inhibition
T2 construct: expressed in transfected cells; host or cells: CHO K1 cells, stably transfected
T2 sequence (P46663 1-353): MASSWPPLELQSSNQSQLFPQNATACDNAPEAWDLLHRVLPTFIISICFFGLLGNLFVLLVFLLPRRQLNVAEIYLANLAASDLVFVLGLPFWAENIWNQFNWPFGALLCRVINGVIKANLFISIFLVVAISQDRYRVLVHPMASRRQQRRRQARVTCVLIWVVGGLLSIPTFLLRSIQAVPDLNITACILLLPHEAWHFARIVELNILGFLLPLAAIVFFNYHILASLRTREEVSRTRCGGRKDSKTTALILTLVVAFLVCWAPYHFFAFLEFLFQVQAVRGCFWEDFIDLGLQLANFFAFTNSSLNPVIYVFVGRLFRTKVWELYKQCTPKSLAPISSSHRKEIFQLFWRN
Description: as §1, §2, §3, §4

inhibition at 10 µM [1] [%] | inhibition at 10 µM [2] [%] | SMILES
99 | 97 | COc1cc(C)c(S(=O)(=O)N2CCc3ccc(C(=O)N4CCC5(CC4)CCN(c4ccncc4)CC5)cc3C2)c(C)c1 [Compound G-04, (2-(4-Methoxy-2,6-dimethylphenylsulfonyl)-1,2,3,4-tetrahydroisoquinolin-7-yl)(9-(pyridin-4-yl)-3,9-diazaspiro[5.5]undecan-3-yl)methanone]
96 | 96 | COc1cc(C)c(S(=O)(=O)N2CCCc3ccc(CC(=O)N4CCC5(CC4)CCN(c4ccncc4)C5)cc32)c(C)c1 [Compound G-09, 2-(1-(4-Methoxy-2,6-dimethylphenylsulfonyl)-1,2,3,4-tetrahydroquinolin-7-yl)-1-(2-(pyridin-4-yl)-2,8-diazaspiro[4.5]decan-8-yl)ethanone]
80 | 97 | COc1cc(C)c(S(=O)(=O)N2CCCc3ccc(CC(=O)N4CCC5(CC4)CCN(C4CCC4)C5)cc32)c(C)c1 [Compound G-10, 1-(2-Cyclobutyl-2,8-diazaspiro[4.5]decan-8-yl)-2-(1-(4-methoxy-2,6-dimethylphenylsulfonyl)-1,2,3,4-tetrahydroquinolin-7-yl)ethanone]
99 | 99 | COc1cc(C)c(S(=O)(=O)N2CCCc3ccc(CC(=O)N4CCC5(CCN(c6ccncc6)CC5)C4)cc32)c(C)c1 [Compound G-11, 2-(1-(4-Methoxy-2,6-dimethylphenylsulfonyl)-1,2,3,4-tetrahydroquinolin-7-yl)-1-(8-(pyridin-4-yl)-2,8-diazaspiro[4.5]decan-2-yl)ethanone]
102 | 100 | COc1cc(C)c(S(=O)(=O)N2CCCc3ccc(CC(=O)N4CCC5(CCN(c6ccncc6)C5)C4)cc32)c(C)c1 (stereo not drawn) [Compound G-12, 2-(1-(4-Methoxy-2,6-dimethylphenylsulfonyl)-1,2,3,4-tetrahydroquinolin-7-yl)-1-(7-(pyridin-4-yl)-2,7-diazaspiro[4.4]nonan-2-yl)ethanone]
94 | 100 | O=C(c1ccccc1Cl)N1CCc2onc(C(=O)N3CCC4(CC3)CCN(c3ccncc3)CC4)c2C1 [Compound G-13, (5-(2-Chlorobenzoyl)-4,5,6,7-tetrahydroisoxazolo[4,5-c]pyridin-3-yl)(9-(pyridin-4-yl)-3,9-diazaspiro[5.5]undecan-3-yl)methanone]
97 | 97 | COc1cc(C)c(S(=O)(=O)N2CCc3sc(C(=O)N4CCC5(CC4)CCN(c4ccncc4)CC5)cc3C2)c(C)c1 [Compound G-14, (5-(4-Methoxy-2,6-dimethylphenylsulfonyl)-4,5,6,7-tetrahydrothieno[3,2-c]pyridin-2-yl)(9-(pyridin-4-yl)-3,9-diazaspiro[5.5]undecan-3-yl)methanone]
81 | 66 | O=C(c1cc2c(s1)CCN(C(=O)c1ccccc1Cl)C2)N1CCC2(CC1)CCN(c1ccncc1)CC2 [Compound G-15, (5-(2-Chlorobenzoyl)-4,5,6,7-tetrahydrothieno[3,2-c]pyridin-2-yl)(9-(pyridin-4-yl)-3,9-diazaspiro[5.5]undecan-3-yl)methanone]
100 | 98 | O=C(Cc1ccc2c(c1)N(S(=O)(=O)c1ccccc1C(F)(F)F)CCC2)N1CCC2(CC1)CCN(c1ccncc1)CC2 [Compound G-16, 1-(9-(Pyridin-4-yl)-3,9-diazaspiro[5.5]undecan-3-yl)-2-(1-(2-(trifluoromethyl)phenylsulfonyl)-1,2,3,4-tetrahydroquinolin-7-yl)ethanone]
89 | 97 | O=C(Cc1ccc2c(c1)N(S(=O)(=O)c1cccc3ccccc13)CCC2)N1CCC2(CC1)CCN(c1ccncc1)CC2 [Compound G-17, 2-(1-(Naphthalin-1-ylsulfonyl)-1,2,3,4-tetrahydroquinolin-7-yl)-1-(9-(pyridin-4-yl)-3,9-diazaspiro[5.5]undecan-3-yl)ethanone]
98 | 97 | Cc1cccc(Cl)c1S(=O)(=O)N1CCCc2ccc(CC(=O)N3CCC4(CC3)CCN(c3ccncc3)CC4)cc21 [Compound G-18, 2-(1-(2-Chloro-6-methylphenylsulfonyl)-1,2,3,4-tetrahydroquinolin-7-yl)-1-(9-(pyridin-4-yl)-3,9-diazaspiro[5.5]undecan-3-yl)ethanone]
100 | 100 | COc1cc(C)c(S(=O)(=O)N2CCOc3ccc(CC(=O)N4CCC5(CC4)CCN(c4ccncc4)CC5)cc32)c(C)c1 [Compound G-19, 2-(4-(4-Methoxy-2,6-dimethylphenylsulfonyl)-3,4-dihydro-2H-benzo[b][1,4]oxazin-6-yl)-1-(9-(pyridin-4-yl)-3,9-diazaspiro[5.5]undecan-3-yl)ethanone]
92 | – | O=C(c1ccc2c(c1)CN(C(=O)c1ccccc1Cl)CC2)N1CCC2(CC1)CCN(c1ccncc1)CC2 [G_CC-045, (2-(2-Chlorobenzoyl)-1,2,3,4-tetrahydroisoquinolin-7-yl)(9-(pyridin-4-yl)-3,9-diazaspiro[5.5]undecan-3-yl)methanone]
84 | – | COc1cc(C)c(S(=O)(=O)N2CCCc3ccc(CC(=O)N4CCC5(CC4)CCN(Cc4ccccc4)C5=O)cc32)c(C)c1 [G_CC-053, 2-Benzyl-8-(2-(1-(4-methoxy-2,6-dimethylphenylsulfonyl)-1,2,3,4-tetrahydroquinolin-7-yl)acetyl)-2,8-diazaspiro[4.5]decan-1-one]
71 | – | COc1cc(C)c(S(=O)(=O)N2CCCc3ccc(CC(=O)N4CCC5(CCN(Cc6ccccc6)C5)C4)cc32)c(C)c1 (stereo not drawn) [G_CC-054, 1-(7-Benzyl-2,7-diazaspiro[4.4]nonan-2-yl)-2-(1-(4-methoxy-2,6-dimethylphenylsulfonyl)-1,2,3,4-tetrahydroquinolin-7-yl)ethanone]
